Molecular target: T1, AsfvPolX (ASFV DNA Polymerase X) (African swine fever virus BA71V, UniProt P42494)
T1 construct: gene Ba71V-97
Assay: biochemical
Type: binding
Settings: for AsfvPolX: no DNA stated, buffer, metal and temperature not stated

T1 sequence (P42494 whole entry, looked up): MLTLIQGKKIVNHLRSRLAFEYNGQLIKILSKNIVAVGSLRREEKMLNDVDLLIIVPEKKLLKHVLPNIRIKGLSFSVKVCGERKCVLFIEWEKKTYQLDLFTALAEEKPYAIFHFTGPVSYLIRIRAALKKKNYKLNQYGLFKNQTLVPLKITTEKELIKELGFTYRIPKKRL

Structure (SMILES) | Kd | other results
Nc1ncnc2c1ncn2[C@H]1C[C@H](O)[C@@H](COP(=O)(O)OP(=O)(O)OP(=O)(O)O)O1 [dATP] | – | AsfvPolX: 0.66 ± 0.05 µM
Nc1ccn([C@H]2C[C@H](O)[C@@H](COP(=O)(O)OP(=O)(O)OP(=O)(O)O)O2)c(=O)n1 [dCTP] | 6.85 ± 0.55 µM | –
Nc1nc2c(ncn2[C@H]2C[C@H](O)[C@@H](COP(=O)(O)OP(=O)(O)OP(=O)(O)O)O2)c(=O)[nH]1 [dGTP] | – | AsfvPolX (structures are ternary complexes with gap(P) DNA and Mn2+): 0.37+0.02 μM
Cc1cn([C@H]2C[C@H](O)[C@@H](COP(=O)(O)OP(=O)(O)OP(=O)(O)O)O2)c(=O)[nH]c1=O [dTTP] | 9.09 ± 0.89 µM | –
